Where a name gives a salt, the structure may show the parent alone.
System: Adjuvant arthritis
Assay: Adjuvant arthritis in the rat (in vivo study), weight of the paw
Parameters: species or system rat (male Sprague-Dawley)
Conditions: 10 mg/kg per day cutaneously, 6 days per week, 3 weeks, started 15 days after Mycobacterium tuberculosis injection, right rear paw

Row | Structure (SMILES) | Adjuvant arthritis, weight of the paw % inhibition (difference in average paw weight of treated arthritic rats relative to reference arthritic rats) [%]
1 | CSC(P(=O)(O)O)P(=O)(O)O [SR 41 036, Tri-(tertiary butylamine) salt of methylthio-methylene-diphosphonic acid] | 23
2 | CC(C)SC(P(=O)(O)O)P(=O)(O)O [SR 41 100] | 37
3 | O=P(O)(O)C(Sc1ccccn1)P(=O)(O)O [SR 41 179] | 25
4 | O=P(O)(O)C(Sc1nc2ccccc2[nH]1)P(=O)(O)O [SR 41 263] | 19
5 | O=P(O)(O)C(Sc1ncccn1)P(=O)(O)O [SR 41 264] | 43
6 | NCCSC(P(=O)(O)O)P(=O)(O)O [SR 41 266] | 29
7 | CSCCC(P(=O)(O)O)P(=O)(O)O [SR 41 273, Tertiary butylamine salt of 3-methylthio-propylidene-1,1-diphosphonic acid] | 39
8 | CC(C)OP(=O)(OC(C)C)C(CCCSc1ccccc1)P(=O)(OC(C)C)OC(C)C [SR 41 341, Tetraisopropyl 4-phenylthio-butylene-1,1-diphosphonate] | 24
9 | O=P(O)(O)C(CCCSc1ccccc1)P(=O)(O)O [SR 41 342, Di-(tertiarybutylamine salt) of 4-phenylthio-butylidene-1,1-diphosphonic acid] | 38
10 | CN(C)CCSC(P(=O)(O)O)P(=O)(O)O [SR 41 344] | 35
11 | Nc1ccccc1SC(P(=O)(O)O)P(=O)(O)O [SR 41 388] | 42
12 | CCCCCCCCSC(P(=O)(O)O)P(=O)(O)O [SR 41 421] | 55
13 | CC(C)OP(=O)(OC(C)C)C(Sc1ccccc1C(=O)O)P(=O)(OC(C)C)OC(C)C [SR 41 452] | 15
14 | CCCCCCCCCCCCCCCCSC(P(=O)(O)O)P(=O)(O)O [SR 41 453, Monoammonium hexadecylthiomethylene-diphosphonate] | 58
15 | CCCCCCCCSC(P(=O)(OC(C)C)OC(C)C)P(=O)(OC(C)C)OC(C)C [SR 41 454, Tetraisopropyl n-octylthiomethylene-diphosphonate] | 33
16 | O=P(O)(O)C(Sc1nc2cc(Cl)ccc2[nH]1)P(=O)(O)O [SR 41 480] | 40

Row | Structure (SMILES) | Adjuvant arthritis, weight of the paw % inhibition (difference in average paw weight of treated arthritic rats relative to reference arthritic rats) [%]
17 | O=P(O)(O)C(Sc1nc2ccccc2s1)P(=O)(O)O [SR 41 481, Tri-(tertiarybutylamine) salt of benzothiazol-2-yl-thiomethylene-diphosphonic acid] | 40
18 | O=P(O)(O)C(Sc1ccccc1)P(=O)(O)O [SR 41 482] | 41
19 | O=P(O)(O)C(CCCCS)P(=O)(O)O [SR 41 527, Di-(tertiarybutylalmine) salt of 5-mercapto-pentylidene-1,1-diphosphonic acid] | 34
20 | O=P(O)(O)C(Sc1cccs1)P(=O)(O)O [SR 41 549, thien-2-yl-thiomethylene-diphosphonic acid] | 34
21 | CCCCCCCSC(P(=O)(O)O)P(=O)(O)O [SR 41 552] | 36
22 | O=P(O)(O)C(Sc1ccccc1Cl)P(=O)(O)O [SR 41 689] | 31
23 | O=P(O)(O)C(O)(CCCSc1ccc(Cl)cc1)P(=O)(O)O [SR 41 903, Di-(tertiarybutylamine) salt of 4-(4-chlorophenylthio)-1-hydroxy-butylidene-1,1-diphosphonic acid] | 55
24 | O=P(O)(O)C(O)(CCCCSc1ccc(F)cc1)P(=O)(O)O [SR 41 909, Di-(tertiarybutylamine) salt of 5-(4-fluorophenylthio)-1-hydroxy-pentylidene-1,1-diphosphonic acid] | 53
25 | O=P(O)(O)C(CCCCCCSc1ccc(Cl)cc1)P(=O)(O)O [SR 41 959] | 60
26 | CCCCCSCCCC(O)(P(=O)(O)O)P(=O)(O)O [SR 41 961] | 53
27 | CCCSCCCCCC(O)(P(=O)(O)O)P(=O)(O)O [SR 42 015] | 47
28 | O=P(O)(O)C(O)(CCCCSc1ccc(Cl)cc1)P(=O)(O)O [SR 42 016] | 48
29 | O=P(O)(O)C(O)(CCSc1ccccc1)P(=O)(O)O [SR 42 017] | 49
30 | CSCCCCCCCCCCC(O)(P(=O)(O)O)P(=O)(O)O [SR 42 097] | 50
31 | O=P(O)(O)C(CCCCSc1ccccn1)P(=O)(O)O [SR 42 099, 5-(pyrid-2-yl-thio)-pentylidene-1,1-diphosphonic acid] | 44

From patent publication US4876248A, “Anti-inflammatory products derived from methylene-diphosphonic acid, and process for their preparation” (priority 1982, dated 1989)
